Source: ChEMBL document CHEMBL5214910, “Rational Design of Dipicolylamine-Containing Carbazole Amphiphiles Combined with Zn2+ as Potent Broad-Spectrum Antibacterial Agents with a Membrane-Disruptive Mechanism” (J Med Chem, 2021)
≈ marks a conversion by molar mass, not a printed value. Calls of active or inactive are those of the source. No cut-off for these calls is given here.

Tests used:
[1] = tested on: Lipopolysaccharide (LPS); test: Displacement of BODIPY-TR-cadaverin from Pseudomonas aeruginosa Lipopolysaccharide at 2 times of MIC incubated for 30 mins by fluorescence based microplate reader analysis relative to control
[2] = tested on: Pseudomonas aeruginosa; test: Antibacterial activity Pseudomonas aeruginosa ATCC 9027 assessed as inhibition of bacterial growth incubated for 24 hrs in the presence of […] ug/mL Zn2+ by Muller hinton broth based dilution assay; format: functional
[3] = tested on: Escherichia coli; test: Antibacterial activity against Escherichia coli ATCC 25922 assessed as inhibition of bacterial growth by measuring salt resistance incubated for 24 hrs in the presence of 12.5 ug/ml Zn2+ and 175.5 ug/ml K+ by Muller hinton broth based dilution assay; format: functional
[4] = tested on: Staphylococcus aureus; test: Antibacterial activity against Methicillin-resistant Staphylococcus aureus NCTC10442 assessed as inhibition of bacterial growth incubated for 24 hrs in the presence of 3.125 ug/mL Zn2+ by Muller hinton broth based dilution assay; format: functional
[5] = tested on: Cell membrane; test: Disruption of cell membrane integrity in Staphylococcus aureus ATCC 29213 assessed as increase in red fluorescence at 8 times of MIC measured for 2 hrs in the presence of 12.5 ug/ml Zn2+ by PI and SYTO staining based assay
[6] = tested on: Escherichia coli; test: Antibacterial activity Escherichia coli ATCC 25922 assessed as inhibition of bacterial growth incubated for 24 hrs in the presence of 0.78 ug/mL Zn2+ by Muller hinton broth based dilution assay; format: functional
[7] = tested on: Staphylococcus aureus; test: Antibacterial activity against Methicillin-resistant Staphylococcus aureus NCTC10442 assessed as inhibition of bacterial growth incubated for 24 hrs in the presence of 0.78 ug/mL Zn2+ by Muller hinton broth based dilution assay; format: functional
[8] = tested on: Staphylococcus aureus; test: Antibacterial activity against Staphylococcus aureus ATCC 29213 assessed as inhibition of bacterial growth incubated for 24 hrs by Muller hinton broth based dilution assay; format: functional
[9] = tested on: Escherichia coli; test: Antibacterial activity Escherichia coli ATCC 25922 assessed as inhibition of bacterial growth incubated for 24 hrs in the presence of 12.5 ug/mL Zn2+ by Muller hinton broth based dilution assay; format: functional
[10] = tested on: Pseudomonas aeruginosa; test: Antibacterial activity against Pseudomonas aeruginosa ATCC 9027 in C57BL/6 mouse model of bacterial keratitis assessed as log reduction in viable bacterial count in infected cornea at 0.5 % pre-infected with bacteria for 24 hrs followed by topical administration of compound four times a day for 3 days in the presence of 12.5 ug/ml of Zn2+; format: functional; details: route top, time 3 day
[11] = tested on: Escherichia coli; test: Antibacterial activity Escherichia coli ATCC 25922 assessed as inhibition of bacterial growth incubated for 24 hrs in the presence of 0.39 ug/mL Zn2+ by Muller hinton broth based dilution assay; format: functional
[12] = tested on: Staphylococcus aureus; test: Antibacterial activity against Staphylococcus aureus ATCC 29213 assessed as inhibition of bacterial growth incubated for 24 hrs in the presence of 12.5 ug/mL Zn2+ by Muller hinton broth based dilution assay; format: functional
[13] = tested on: Escherichia coli; test: Antibacterial activity Escherichia coli ATCC 25922 assessed as inhibition of bacterial growth incubated for 24 hrs by Muller hinton broth based dilution assay; format: functional
[14] = tested on: Escherichia coli; test: Antibacterial activity Escherichia coli ATCC 25922 assessed as inhibition of bacterial growth incubated for 24 hrs in the presence of 3.125 ug/mL Zn2+ by Muller hinton broth based dilution assay; format: functional
[15] = tested on: Staphylococcus aureus; test: Antibacterial activity against Staphylococcus aureus ATCC 29213 assessed as log reduction in bacterial count at 4 times of MIC incubated for 1 hrs in the presence of 12.5 ug/ml Zn2+ by Muller hinton agar based time kill assay; format: functional
[16] = Hemolytic activity in rabbit RBC incubated for 1 hrs by fluorescence based microplate reader assay; format: toxicity, cell-based, Oryctolagus cuniculus, Erythrocyte; details: rabbit red blood cells (erythrocytes)
[17] = tested on: Staphylococcus aureus; test: Antibacterial activity against Methicillin-resistant Staphylococcus aureus NCTC10442 assessed as inhibition of bacterial growth incubated for 24 hrs in the presence of […] ug/mL Zn2+ by Muller hinton broth based dilution assay; format: functional
[18] = tested on: Staphylococcus aureus; test: Antibacterial activity against Staphylococcus aureus ATCC 29213 assessed as log reduction in bacterial count at 8 times of MIC incubated for 30 mins in the presence of 12.5 ug/ml Zn2+ by Muller hinton agar based time kill assay; format: functional; details: 0.5 h
[19] = tested on: Lipopolysaccharide (LPS); test: Displacement of BODIPY-TR-cadaverin from Pseudomonas aeruginosa Lipopolysaccharide at 8 times of MIC incubated for 30 mins by fluorescence based microplate reader analysis relative to control
[20] = tested on: Cell membrane; test: Induction of cell membrane […] in Escherichia coli ATCC 25922 assessed as increase in fluorescence intensity at 2 times to 8 times of MIC measured for 1 hrs in the presence of 12.5 ug/ml Zn2+ by […] dye based assay; format: subcellular
[21] = Ratio of MIC for antibacterial activity against Acinetobacter baumannii R2889 to MIC for antibacterial activity against Acinetobacter baumannii R2889 in the presence of Zn2+; format: functional
[22] = tested on: Lipopolysaccharide (LPS); test: Displacement of BODIPY-TR-cadaverin from Pseudomonas aeruginosa Lipopolysaccharide at 1 times of MIC incubated for 30 mins in the presence of 12.5 ug/ml Zn2+ by fluorescence based microplate reader analysis relative to control
[23] = tested on: Escherichia coli; test: Antibacterial activity against Escherichia coli ATCC 25922 assessed as inhibition of bacterial growth by measuring salt resistance incubated for 24 hrs in the presence of 12.5 ug/ml Zn2+ and 3220 ug/ml Na+ by Muller hinton broth based dilution assay; format: functional
[24] = tested on: Staphylococcus aureus; test: Antibacterial activity against Methicillin-resistant Staphylococcus aureus NCTC10442 assessed as inhibition of bacterial growth incubated for 24 hrs by Muller hinton broth based dilution assay; format: functional
[25] = tested on: Staphylococcus aureus; test: Antibacterial activity against Methicillin-resistant Staphylococcus aureus NCTC10442 assessed as inhibition of bacterial growth by measuring salt resistance incubated for 24 hrs in the presence of 12.5 ug/ml Zn2+ and 175.5 ug/ml K+ by Muller hinton broth based dilution assay; format: functional
[26] = tested on: Pseudomonas aeruginosa; test: Antibacterial activity Pseudomonas aeruginosa ATCC 9027 assessed as inhibition of bacterial growth incubated for 24 hrs by Muller hinton broth based dilution assay; format: functional
[27] = tested on: Pseudomonas aeruginosa; test: Antibacterial activity Pseudomonas aeruginosa ATCC 9027 assessed as inhibition of bacterial growth incubated for 24 hrs in the presence of 0.39 ug/mL Zn2+ by Muller hinton broth based dilution assay; format: functional
[28] = tested on: Acinetobacter baumannii; test: Antibacterial activity against Acinetobacter baumannii ATCC 17978 assessed as inhibition of bacterial growth by measuring salt resistance incubated for 24 hrs in the presence of 12.5 ug/ml Zn2+ and 3220 ug/ml Na+ by Muller hinton broth based dilution assay; format: functional
[29] = tested on: Lipopolysaccharide (LPS); test: Displacement of BODIPY-TR-cadaverin from Pseudomonas aeruginosa Lipopolysaccharide at 8 times of MIC incubated for 30 mins in the presence of 12.5 ug/ml Zn2+ by fluorescence based microplate reader analysis relative to control
[30] = tested on: Staphylococcus aureus; test: Antibacterial activity against Staphylococcus aureus ATCC 29213 assessed as inhibition of bacterial growth incubated for 24 hrs in the presence of 25 ug/mL Zn2+ by Muller hinton broth based dilution assay; format: functional
[31] = tested on: Acinetobacter baumannii; test: Antibacterial activity against Acinetobacter baumannii ATCC 17978 assessed as inhIbition of bacterial growth incubated for 24 hrs in the presence of 12.5 ug/mL Zn2+ by Muller hinton broth based dilution assay; format: functional
[32] = tested on: Staphylococcus aureus; test: Antibacterial activity against Methicillin-resistant Staphylococcus aureus N315 assessed as inhibition of bacterial growth incubated for 24 hrs in the presence of 12.5 ug/mL Zn2+ by Muller hinton broth based dilution assay; format: functional

CC(C)=CCn1c2ccccc2c2c(OCC(O)CN(Cc3ccccn3)Cc3ccccn3)cccc21 (configuration not stated)
Activity [1]: 0.19% | MIC [2]: 50 µg/mL | MIC [3]: 1.56 µg/mL | MIC [4]: 1.56 µg/mL | Activity [5]: Active | MIC [6]: 6.25 µg/mL | MIC [7]: 1.56 µg/mL | MIC [8]: 3.12 µg/mL (≈ 6.17 µM) | MIC [9]: 1.56 µg/mL | log(activity) [10]: 4.46 | MIC [11]: 6.25 µg/mL | MIC [12]: 1.56 µg/mL | MIC [13]: 6.25 µg/mL (≈ 12.3 µM) | MIC [14]: 3.12 µg/mL | log(activity) [15]: 3.03 | HC50 at 1 h [16]: > 200 µg/mL | MIC [17]: 1.56 µg/mL | log(activity) [18]: 4.22 | Activity [19]: 1.32% | Activity [20]: Active | Ratio [21]: 2 | Activity [22]: 20.8% | MIC [23]: 3.12 µg/mL | MIC [24]: 1.56 µg/mL (≈ 3.08 µM) | MIC [25]: 1.56 µg/mL | MIC [26]: > 50 µg/mL | MIC [27]: > 50 µg/mL | MIC [28]: 0.78 µg/mL | Activity [29]: 83.4% | MIC [30]: 1.56 µg/mL | MIC [31]: 0.78 µg/mL | MIC [32]: 0.78 µg/mL
